Where a name gives a salt, the structure may show the parent alone.
Legend:
[1] = system: SB.mhdgc-1; test: viability at highest tested concentration (MAXR) relative to DMSO; higher = less cytotoxic; conditions: SB.mhdgc-1 (hereditary c.1380delA CDH1 gastric cancer)
How it was run: (§1)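 Viability values are normalised to DMSO and given either at the highest concentration or as trapezoidal area under the curve. The assay used 500 hereditary or sporadic patient-derived gastric cancer cells in 5 μL medium per 1536 well, dosed by pintool with 23 nL of compound in DMSO at 11 threefold-diluted concentrations. CellTiter-Glo was added 48 h later for 30 min at room temperature, followed by luminescence reading on a ViewLux.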

[2] = system: SB.msgc-1; test: as above; conditions: SB.msgc-1 (sporadic gastric cancer)
How it was run: as §1

[3] = system: SB.mhdgc-1; test: area under the dose-response curve of % viability (trapezoidal, 11 doses) (% viability x log10 concentration); higher = less cytotoxic; conditions: SB.mhdgc-1 (hereditary c.1380delA CDH1 gastric cancer)
How it was run: as §1

[4] = system: SB.msgc-1; test: as above; conditions: SB.msgc-1 (sporadic gastric cancer)
How it was run: as §1

With `O=C(Nc1ccncc1)C(=O)c1cn(Cc2ccc(Cl)cc2)c2ccccc12` [Indibulin] (top concentration 46.0829 µM) the viability [1] was 70.3%, the viability [2] was 34.1% and the “area under the dose-response curve” value [3] was 468. For the same compound, the “area under the dose-response curve” value [4] was 398.

For `Cc1cccc(-c2[nH]c(C(C)(C)C)nc2-c2ccc3c(c2)OCO3)n1` (top concentration 46.0829 µM), the viability [1] was 7.36%, the viability [2] was 22.8% and the “area under the dose-response curve” value [3] was 512. The “area under the dose-response curve” value [4] was 457.

For `O=C(Nc1c(Cl)cncc1Cl)c1ccc(OC(F)F)c(OCC2CC2)c1` [Roflumilast] (top concentration 46.0829 µM), the viability [1] was 90.6%, the viability [2] was 85.9% and the “area under the dose-response curve” value [3] was 528. For the same compound, the “area under the dose-response curve” value [4] was 558.

For `CCCC1=NC(=C2[N]1NC(=N\C2=O)/C3=CC(=CC=C3OCC)[S+]([O-])(=O)N4CCN(CC)CC4)C` [Vardenafil] (top concentration 46.0829 µM), the viability [1] was 29.8%, the viability [2] was 7.86% and the “area under the dose-response curve” value [3] was 504. The “area under the dose-response curve” value [4] was 437.

With `CNC[C@H](O)c1cccc(O)c1` [Phenylephrine hydrochloride] (top concentration 46.0829 µM) the viability [1] was 99.2%, the viability [2] was 122% and the “area under the dose-response curve” value [3] was 506. For the same compound, the “area under the dose-response curve” value [4] was 541.

With `FC(F)(F)c1ccc(/C=C/c2nc(COc3ccc(CCCCn4ccnn4)cc3)co2)cc1` [Mubritinib] (top concentration 46.0829 µM) the viability [1] was 48.8%, the viability [2] was 28.4% and the “area under the dose-response curve” value [3] was 368. The “area under the dose-response curve” value [4] was 241.

For `Cn1cnc2c1c(=O)[nH]c(=O)n2C` [Theobromine] (top concentration 46.0829 µM), the viability [1] was 4.3%, the viability [2] was 1.84% and the “area under the dose-response curve” value [3] was 531. The “area under the dose-response curve” value [4] was 373.

For `COc1ccc(Cc2ccc(NC(N)=O)cc2)cc1-c1cccc(Cl)c1` (top concentration 46.0829 µM), the viability [1] was 84.8%, the viability [2] was 81.3% and the “area under the dose-response curve” value [3] was 492. For the same compound, the “area under the dose-response curve” value [4] was 579.

In the case of `O=C(OCC#CCSc1nnc(-c2cccc3ccccc23)o1)c1cc2ccccc2s1` (top concentration 46.0829 µM), the viability [1] is reported as 101%, the viability [2] is reported as 81.2% and the “area under the dose-response curve” value [3] is reported as 584. The “area under the dose-response curve” value [4] was 494.

With `CC(C)n1cnc2c(NCCc3ccc(O)cc3)nc(-c3csc4ccccc34)nc21` [StemRegenin 1] (top concentration 46.0829 µM) the viability [1] was -0.348%, the viability [2] was 2.16% and the “area under the dose-response curve” value [3] was 298. For the same compound, the “area under the dose-response curve” value [4] was 413.

With `OC1=C(C=CC=C1)C2=CC=C(C=C2)C3=CSC4=C3C(=C(/C#N)C(=O)N4)/O` (top concentration 46.0829 µM) the viability [1] was 22.3%, the viability [2] was 66.3% and the “area under the dose-response curve” value [3] was 456. For the same compound, the “area under the dose-response curve” value [4] was 511.

`O=C(O)c1ccc(-n2nc(-c3ccccc3O)nc2-c2ccccc2O)cc1` [Deferasirox] (top concentration 46.0829 µM) was tested, and the viability [1] was 58.3%, the viability [2] was 39.1% and the “area under the dose-response curve” value [3] was 536. For the same compound, the “area under the dose-response curve” value [4] was 478.

In the case of `COC(=O)Nc1ccc(-c2nc(N3CCOCC3)c3cnn(C4CCN(Cc5cccnc5)CC4)c3n2)cc1` [WYE-687] (top concentration 46.0829 µM), the viability [1] is reported as 20.2%, the viability [2] is reported as 46.2% and the “area under the dose-response curve” value [3] is reported as 304. The “area under the dose-response curve” value [4] was 452.

For `C[C@@H]1[C@H](O)[C@@H](C)C=CC=CCCC=CC=CC=CC=C[C@H](O[C@H]2O[C@@H](C)[C@H](O)[C@@H](N)[C@H]2O)CC2O[C@](O)(C[C@@H](O)[C@H](O)CC[C@@H](O)C[C@@H](O)C[C@@H](O)CC(=O)O[C@H]1C)C[C@H](O)[C@H]2C(=O)O` [Nystatin] (top concentration 46.0829 µM), the viability [1] was 106%, the viability [2] was 120% and the “area under the dose-response curve” value [3] was 541. The “area under the dose-response curve” value [4] was 564.

In the case of `COC(=O)C/1=C(C)/N/C(=C(\C1C2=CC(=CC=C2)[N+]([O-])=O)C(=O)OCCCN3CCC(CC3)(C4=CC=CC=C4)C5=CC=CC=C5)C` (configuration not stated) [Niguldipine] (top concentration 46.0829 µM), the viability [1] is reported as 118%, the viability [2] is reported as 84.7% and the “area under the dose-response curve” value [3] is reported as 621. The “area under the dose-response curve” value [4] was 450.

For `CN1CCN(CC1)C/2=N/C3=CC=CC=C3NC4=C2C=C(C)S4` [Olanzapine] (top concentration 46.0829 µM), the viability [1] was 124%, the viability [2] was 128% and the “area under the dose-response curve” value [3] was 496. The “area under the dose-response curve” value [4] was 545.

For `Fc1ccc(Cl)cc1-c1nc(Nc2ccncc2)c2nccnc2n1` [SD-208] (top concentration 46.0829 µM), the viability [1] was 48.8%, the viability [2] was 66.8% and the “area under the dose-response curve” value [3] was 467. The “area under the dose-response curve” value [4] was 489.

`Cc1cnc(-c2cc(N3CCN(C(=O)CC[S+](C)(=O)[O-])CC3)ncc2Cl)c(C)c1` (top concentration 46.0829 µM) was tested, and the viability [1] was 58.1%, the viability [2] was 92.6% and the “area under the dose-response curve” value [3] was 447. The “area under the dose-response curve” value [4] was 516.

In the case of `COc1ccc2cc1Oc1ccc(cc1)C[C@H]1c3cc(c(OC)cc3CCN1C)Oc1c(OC)c(OC)cc3c1[C@H](C2)N(C)CC3` [Tetrandrine] (top concentration 46.0829 µM), the viability [1] is reported as 57.7%, the viability [2] is reported as 48.5% and the “area under the dose-response curve” value [3] is reported as 538. For the same compound, the “area under the dose-response curve” value [4] was 507.

In the case of `COc1cccc2c(NCc3ccccc3)nc(-n3c(N)nc4ccccc43)nc12` (top concentration 46.0829 µM), the viability [1] is reported as 1.2%, the viability [2] is reported as 0.276% and the “area under the dose-response curve” value [3] is reported as 425. The “area under the dose-response curve” value [4] was 424.

In the case of `CCOC(=O)C(C)(C)Oc1ccc(Cl)cc1` [Clofibrate] (top concentration 46.0829 µM), the viability [1] is reported as 73.8%, the viability [2] is reported as 94.5% and the “area under the dose-response curve” value [3] is reported as 543. For the same compound, the “area under the dose-response curve” value [4] was 515.

With `CN1CCC(CC1)=C2C3=C(C=CC=C3)\C=C/C4=C2C=CC=C4` [Cyproheptadine hydrochloride] (top concentration 46.0829 µM) the viability [1] was 12.1%, the viability [2] was 19.9% and the “area under the dose-response curve” value [3] was 472. The “area under the dose-response curve” value [4] was 455.

`NC(=O)Nc1cc(-c2ccc(CN3CCOCC3)cc2)sc1C(N)=O` [AZ-TAK1 Inhibitor] (top concentration 46.0829 µM) was tested, and the viability [1] was 29.1%, the viability [2] was 36.6% and the “area under the dose-response curve” value [3] was 488. For the same compound, the “area under the dose-response curve” value [4] was 504.

From the supplement of paper PMC5412046
